Measured values: article PMC8871312, “Effects of Microbial Transformation on the Biological Activities of Prenylated Chalcones from Angelica keiskei” (Foods, 2022)

Molecular target: T1, Tyrosinase from mushroom
T1 construct: gene PPO3
Assay: dopachrome absorbance at […] nm
Format: biochemical
Conditions: 2 mM L-tyrosine, 0.1 M phosphate pH 6.5, 37 °C, 30 min, 150 U/mL enzyme; read-out: IC50 ± SD (μM) / Tyrosinase

IC50	Compound
43.1 ± 6.74 µM	CC(C)=CCc1c(O[C@@H]2O[C@H](CO)[C@@H](O)[C@H](O)[C@H]2O)ccc(C(=O)/C=C/c2ccc(O)cc2)c1O [compound 6, 3′-(3-methyl-2-butenyl)-4′-O-β-D-glucopyranosyl-4,2′-dihydroxychalcone]
> 100 µM	CC(C)=CCc1c(O)ccc(C(=O)/C=C/c2ccc(O)cc2)c1O [compound 1, isobavachalcone]
> 100 µM	CC(C)=CCC/C(C)=C/Cc1c(O)ccc(C(=O)/C=C/c2ccc(O)cc2)c1O [compound 3, xanthoangelol]
33.3 ± 1.16 µM	CCOC(C)(C)CCc1c(O[C@@H]2O[C@H](CO)[C@@H](O)[C@H](O)[C@H]2O)ccc(C(=O)/C=C/c2ccc(O)cc2)c1O [compound 7, 3′-(3-O-Ethyl-3-methylbutyl)-4′-O-β-D-glucopyranosyl-4,2′-dihydroxychalcone]

The next lines start with the compound.

Compound	IC50
CC(C)=CCC/C(C)=C/Cc1c(O[C@@H]2O[C@H](CO)[C@@H](O)[C@H](O)[C@H]2O)ccc(C(=O)/C=C/c2ccc(O)cc2)c1O [compound 10, 4′-O-β-D-Glucopyranosyl xanthoangelol]	71.7 ± 9.22 µM
CC(C)(O)CCc1c(O[C@@H]2O[C@H](CO)[C@@H](O)[C@H](O)[C@H]2O)ccc(C(=O)/C=C/c2ccc(O)cc2)c1O [compound 4, 3′-(3-Hydroxy-3-methylbutyl)-4′-O-β-D-glucopyranosyl-4,2′-dihydroxychalcone]	78.5 ± 3.13 µM
COC(C)(C)CCc1c(O[C@@H]2O[C@H](CO)[C@@H](O)[C@H](O)[C@H]2O)ccc(C(=O)/C=C/c2ccc(O)cc2)c1O [compound 5, 3′-(3-O-Methyl-3-methylbutyl)-4′-O-β-D-glucopyranosyl-4,2′-dihydroxychalcone]	28.7 ± 1.24 µM

Molecular target: T1, Tyrosinase from mushroom
Assay: dopachrome absorbance at […] nm
Format: biochemical
Conditions: 2 mM L-tyrosine, 0.1 M phosphate pH 6.5, 37 °C, 30 min, 150 U/mL enzyme; read-out: IC50 ± SD (μM) / Tyrosinase
Remark: another data set of the same source

IC50	Compound
> 100 µM	COc1ccc(C(=O)/C=C/c2ccc(O)cc2)c(O)c1CC=C(C)C [compound 2, 4-hydroxyderricin]
